Measured values from patent publication US20260159561A1 (MyNeuroCure Oy, priority 2017, published 2026).

B1: MANF: mesencephalic astrocyte-derived neurotrophic factor; mature human MANF, SEQ ID NO: 9, 158 amino acids (protein, listed as Homo sapiens)
chain: LRPGDCEVCISYLGRFYQDLKDRDVTFSPATIENELIKFCREARGKENRLCYYIGATDDAATKIINEVSKPLAHHIPVEKICEKLKKKDSQICELKYDKQIDLSTVDLKKLRVKELKKILDDWGETCKGCAEKSDYIRKINELMPKYAPKAASARTDL

Tests used:
[1] = tested on: ER stressed superior cervical ganglia (SCG) sympathetic neurons; test: Survival of tunicamycin ER-stressed SCG neurons microinjected with expression plasmids; format: cell-based, mouse; conditions: expressed from microinjected plasmids; tunicamycin 2 μM; counted after three days
Protocol: (§1) Non-neuronal cells were removed by extensive preplating. Almost pure neurons were cultured in polyornithine/laminin (Sigma)-coated 35-mm plastic dishes in the small-size standard microislands in the Neurobasal medium and B27 supplement (Invitrogen/Gibco) in the presence of 30 ng/ml mouse nerve growth factor (NGF) (Promega) for 5-6 days. NGF was deprived by extensive washing and addition of the function-blocking anti-NGF antibodies (Roche). The neurons were pressure-microinjected with special neuronal microinjection equipment (Hellman et al., 2011; Hamner et al., 2001; Lindholm et al., 2002; Sun et al., 2001; Yu et al., 2003)(Sun et al., 2001; Sun et al., 2003). For the survival assay, all neurons on the microislands were counted in the beginning (initial number) and the end (three days) of the experiment and expressed as % of initial.
(§2) Microinjection of the sympathetic neurons was performed as described earlier (Yu, L. Y., Jokitalo, E., Sun, Y. F., Mehlen, P., Lindholm, D., Saarma, M., and Arumäe, U. (2003) J. Cell Biol. 163, 987-997). […] Next day tunicamycin (2 μM) was added, and after 3 days the living fluorescent neurons were counted. Living fluorescent (EGFP-expressing or Dextran Texas Red-containing) neurons were “blindly” counted three days later and expressed as percent of initial living fluorescent neurons counted 2-3 hours after microinjection. […]

[2] = tested on: rats in the 6-OHDA model of Parkinson's disease; conditions: applied before the toxin; cited from earlier work
ER stressed SCG neurons = test: Survival of tunicamycin ER-stressed SCG neurons microinjected with recombinant protein; format: cell-based, mouse; conditions: recombinant protein microinjected into the cytoplasm; tunicamycin 2 μM; counted after 3 days
Protocol: as §1, §2

[3] = tested on: Huntington's disease rat model (quinolinic acid); test: Quinolinic acid Huntington's disease rat model, rotarod and grip strength; format: in vivo; conditions: single intrastriatal injection 2 weeks after QA, equimolar to CDNF 10 micrograms, vs QA+PBS
Excerpt: Adult Wistar rats received a single, unilateral intrastriatal injection of quinolinic acid (QA) 225 nmol into coordinates: A/P+0.7; L/M+2.8; D/V −6.0. Quinolinic acid is a toxin that induces striatal neuron death by an excitotoxic process. […] Rats were randomized to groups before the treatments started. Rotarod and grip strength tests were done weekly.

E14 dopamine neurons = test: Internalization of iodinated proteins into dopamine neurons; format: cell-based, mouse; conditions: 30,000 cpm iodinated protein, 37° C., 2 hr, acid wash
Protocol: 2 hr. The cells were transferred to ice and washed once with 0.5 ml of the ice cold media. Then cells were transferred to Eppendorf tubes and washed at 4° C. once with 0.2M acetic acid, 0.5M NaCl, pH 2.8.

rat PC6 cells = test: Internalization of iodinated proteins into PC6.3 cells; format: cell-based; conditions: PC6 cells with or without thapsigargin, 90 min, acid wash
Protocol: Rat PC6.3 pheochromocytoma cells were grown on the 24 well plate in DMEM culture with 10% FCS and 5% horse serum. […] 90 min. The cells were put on ice, washed once with 0.5 ml of the ice cold media. Then cells were transferred to Eppendorf tubes and washed once with 0.2M acetic acid, 0.5M NaCl, pH 2.8. After centrifugation at 1000 g for 10 min cells were dissolved in 0.5 ml of 0.5 N NaOH and counted in Wizard 3 1480 Automatic Gamma Counter (Perkin Elmer, Wallac).

Molecule	living fluorescent neurons, percentage of initial neurons [1]	6-OHDA-induced behavioral and histological symptoms [2]	living fluorescent neurons, percentage of initial neurons (ER stressed SCG neurons)	rotarod latency to fall (motor behavior) [3]	radioactivity inside the cells (internalization) (E14 dopamine neurons)	radioactivity inside the cells (cell membrane penetration) (rat PC6 cells)
CDNF: cerebral dopamine neurotrophic factor; mature human CDNF, SEQ ID NO: 7, 161 amino acids	rescue ER stressed superior cervical ganglia (SCG) sympathetic neurons	potently prevent the 6-OHDA-induced behavioral and histological symptoms	rescue ER stressed SCG neurons	not CDNF improved motor behavior statistically significantly		
^125I-CDNF: full length CDNF iodinated with 125I-Na using the lactoperoxidase method					not ^125I-CDNF is efficiently internalized	not full length iodinated CDNF penetrate cell membrane
B1		potently prevent the 6-OHDA-induced behavioral and histological symptoms				
